Results on 1 compound are retold here after patent US7781393B2, “Methods for inhibiting tumor cell growth” (Dana-Farber Cancer Institute, Inc., priority 2004, dated 2010).

The subject of data set [1] is MM cells, prostate cancer cells, SK-N-MC sarcoma cells. The experiment in a line: Sensitization of tumor cells to other anti-cancer therapies in vitro. In kind it is cell-based, human. To be noted: MM cells to doxorubicin, melphalan, dexamethasone, TRAIL/Apo2L, PS-341, SK-N-MC to Fas ligation. Here is the method: The ability of IGF-1R inhibitors to sensitize tumor cells to other anti-cancer therapies in vitro was determined.

The test system of another data set is MM-1S-Luc human MM cells. The experiment in a line: Model of diffuse skeletal MM lesions, bioluminescence imaging and survival. In kind it is in vivo. The method, then:
Briefly, male (6 to 8-week old) SCIDI/NOD mice (Jackson Laboratories, Bar Harbor, Me.) were sublethally irradiated (300 rads) using ^137CS γ-irradiator source. After 3-6 hours, 5×10^6 MM-1S-luc^+ cells in 100 μL of phosphate-buffered saline (PBS) was injected via the tail vein into each mouse. Mice were monitored daily for changes in their body weight, signs of infection, and paralysis, and weekly by whole-body bioluminescence imaging utilizing the In Vivo Imaging System (IVIS, Xenogen Corp, Alameda, Calif.) with total imaging time of 2 min, bin 2. Total body bioluminescence was quantified by integrating the photonic flux (photons/sec) through a standardized region of interest encompassing each mouse (Living Images, Xenogen). […] Melphalan (Alkeran, GlaxoSmithKline, Research Triangle Park, N.C.) was formulated according to manufacturer's instructions, and was administered by i.p. injection. All animal studies were approved by the Dana-Farber Cancer Institute Animal Care and Use Committee.
Statistical significance for in vitro assay results was examined by 2-way analysis of variance, followed by Duncan's post-hoc test. Statistical significance for bioluminescence imaging studies was determined by two-tailed student's t-test. In all analyses, P<0.05 was considered statistically significant. For assessment of in vivo anti-tumor activity, the overall survival of mice was defined as the time between i.v. injection of tumor cells and sacrifice or, death and was compared across different treatment groups with Kaplan-Meier survival analysis.
The in vivo anti-tumor activity of IGF-1R inhibition in a mouse xenograft model of MM was examined. The MM cell line MM-1S was engineered to stably express firefly luciferase fused to a selectable marker (neomycin phosphotransferase or enhanced GFP). Sub-lethally irradiated NOD/SCID mice were injected intravenously with MM-1S-Luc cells and tumor distribution was followed by serial whole-body non-invasive imaging of visible light emitted by luciferase-expressing tumor cells upon injection of mice with luciferin.
Sublethally irradiated NOD/SCID mice were injected with MM1S-Luc cells, and serially imaged to monitor tumor burden. After 2-3 weeks, cohorts of mice with similarly increasing tumor burden were divided into control and treatment groups.

For another data set, the system named is MM-1S cells. Nature of the data set: Immunoblotting of anti-apoptotic signaling cascades. It counts as cell-based, human. Particulars: 500 nM, serum-containing medium. The method, then:
Flow cytometric analyses for IGF-1R, and IGF-2R were performed as previously described on a EPICS-XL-MCL flow cytometer (Beckman Coulter). Previously described protocols were applied for immunoblotting analyses; TRAP telomerase activity assay; 20S proteasome chymotryptic activity assay; DNA binding activity ELISAs for quantitative assessments of NF-κB and HIF-1a transcriptional activities. VEGF and IGF-1 ELISAs were performed according to manufacturer's instructions (R&D Systems, Minneapolis, Minn.).

For data set [2], the system named is 58 hematologic and solid tumor cell lines. Nature of the data set: MTT colorimetric survival assay, panel of hematologic and solid tumor cell lines. It counts as cell-based, human. To be noted: all cell lines; 0-10 μM for 72 hours. For orientation: Formazan colour is commonly taken as a measure of viable cells.
The mark [3] stands for this setting: monotherapy 10 mg/kg i.p. twice daily.

In the case of `Nc1ncnc2c1c(-c1cccc(OCc3ccccc3)c1)cn2[C@H]1C[C@H](CN2CCCC2)C1` [ADW-742, trans-5-(3-benzyloxy-phenyl)-7-(3-pyrrolidin-1-ylmethyl-cyclobutyl)-7H-pyrrolo[2,3-d]pyrimidin-4-ylamine], the “sensitivity of tumor cells to other anti-cancer therapies” value in data set [1] was “increases the sensitivity”. For the same compound, in the data set with MM-1S-Luc human MM cells (10 mg/kg i.p. twice daily), the treatment-related toxicity result is on record as “no other significant treatment-related toxicity”. The same compound showed a median overall survival with MM-1S-Luc human MM cells (10 mg/kg i.p. twice daily for 19 days, control 21 days, P=0.02 log-rank) of 38 days. For the same compound, the “anti-tumor activity, pulsatile administration” value in the data set on MM-1S-Luc human MM cells (10 mg/kg i.p. twice daily, 4 days per week, alone) is recorded as “no significant anti-tumor activity”. Further, the body weight entry with MM-1S-Luc human MM cells (10 mg/kg i.p. twice daily, between treatment groups, P=0.82) is “no difference in body weight”. Besides, in the data set with MM-1S-Luc human MM cells (melphalan 2.5 mg i.p once a week followed by ADW-742 10 mg/kg i.p. twice daily, 4 days per week), the “survival, combination with melphalan” value is given as “synergistic effect in prolonging the survival of mice”. Further, in the data set on MM-1S-Luc human MM cells (setting [3]), the survival of mice result was “prolongs the survival of mice” and the tumor growth entry is “significantly suppresses tumor growth”. Besides, the “anti-tumor efficacy, further studies” value in the data set on MM-1S-Luc human MM cells (second study same i.p. dosing, third study orally 50 mg/kg twice daily) is “Consistent results”. For the same compound, in the data set on MM-1S cells, the “Akt, MEK1/2 and FKHRL-1 phosphorylation” value was “early suppression”; the “intracellular levels of Akt, Bmx, IKK-α and RANKL” value is “decrease”. In addition, in data set [2], the “inhibition of serum-induced cell growth” value is given as “Dose-dependent inhibition”.
